Experimental data reported in US4537717A.
Values after ≈ are worked out from the molar mass of the structure shown.

Assays:
[1] = system: Staphylococcus aureus ATCC 6738P; assay: agar-plate disc-diffusion test; type: cell-based; conditions: suspended in water at 1 mg/ml; 7 mm disc; 24-48 hours at 25-37° C.
[2] = system: Micrococcus luteus ATCC 9341; assay: agar-plate disc-diffusion test; type: cell-based; conditions: suspended in water at 1 mg/ml; 7 mm disc; 24-48 hours at 25-37° C.
[3] = system: Staphylococcus aureus X1.1; type: cell-based; conditions: agar dilution; 2, 5, 17, 22 median of three tests; paired values two experiments
[4] = system: Staphylococcus aureus V41; type: cell-based; conditions: penicillin-resistant strain; agar dilution; 2, 5, 17, 22 median of three tests; paired values two experiments
[5] = system: Staphylococcus aureus X400; type: cell-based; conditions: methicillin-resistant strain; agar dilution; 2, 5, 17, 22 median of three tests; paired values two experiments
[6] = system: Staphylococcus epidermidis EPI1; type: cell-based; conditions: agar dilution; 2, 5, 17, 22 median of three tests; paired values two experiments
[7] = system: Staphylococcus epidermidis EPI2; type: cell-based; conditions: agar dilution; 2, 5, 17, 22 median of three tests; paired values two experiments
[8] = system: Streptococcus pyogenes C203; type: cell-based; conditions: agar dilution; 2, 5, 17, 22 median of three tests; paired values two experiments
[9] = system: Streptococcus pneumoniae Park I; type: cell-based; conditions: agar dilution; 2, 5, 17, 22 median of three tests; paired values two experiments
[10] = system: Streptococcus pneumoniae Group D X66; type: cell-based; conditions: agar dilution; 2, 5, 17, 22 median of three tests; paired values two experiments
Streptococcus Group 9960 = type: cell-based, Streptococcus pneumoniae; conditions: agar dilution; 2, 5, 17, 22 median of three tests; paired values two experiments
Staphylococcus aureus = assay: in vivo activity against experimental bacterial infection (ED50); conditions: mice; two doses subcutaneously; dose protecting fifty percent of test animals
Streptococcus pyogenes = assay: as above; conditions: mice, dose protecting fifty percent of test animals; for ED50 Streptococcus pyogenes Oral: two doses orally; for ED50 Streptococcus pyogenes Subcutaneous: two doses subcutaneously
toxicity test (LD50) = conditions: mouse, in vivo, iv, mice; administered intravenously
[11] = system: Bacillus subtilis ATCC 6633; assay: agar-plate disc-diffusion test; conditions: 7 mm disc, 24-48 hours at 25-37° C.; for Size of Zone of Inhibition (mm) B. subtilis ATCC 6633, grown on minimal nutrient agar: 1 mg/ml; for Size of Zone of Inhibition (mm) Bacillus subtilis ATCC 6633: suspended in water at 1 mg/ml
Procedure: ^a Compounds were suspended in water at a concentration of 1 mg/ml; a
7 mm disc was dipped into the suspension and then placed on the agar
surface; incubation: 24-48 hours at 25-37° C.
^b Grown on minimal nutrient agar

Row | Structure (SMILES) | Size of Zone of Inhibition (mm) Staphylococcus aureus ATCC 6738P [1] | Size of Zone of Inhibition (mm) Micrococcus luteus ATCC 9341 [2] | MIC Staphylococcus aureus X1.1 [3] | MIC Staphylococcus aureus V41 [4] | MIC Staphylococcus aureus X400 [5] | MIC Staphylococcus epidermidis EPI1 [6] | MIC Staphylococcus epidermidis EPI2 [7] | MIC Streptococcus pyogenes C203 [8] | MIC Streptococcus pneumoniae Park I [9] | MIC Streptococcus pneumoniae Group D X66 [10] | MIC Streptococcus pneumoniae Group 9960 (Streptococcus Group 9960) | ED50 Staphylococcus aureus Subcutaneous (Staphylococcus aureus) | ED50 Streptococcus pyogenes Oral (Streptococcus pyogenes) | ED50 Streptococcus pyogenes Subcutaneous (Streptococcus pyogenes) | LD50 (toxicity test (LD50)) | Size of Zone of Inhibition (mm) B. subtilis ATCC 6633, grown on minimal nutrient agar [11] | Size of Zone of Inhibition (mm) Bacillus subtilis ATCC 6633 [11]
1 | CCCCCCCCCCCCC(=O)N[C@@H](Cc1c[nH]c2ccccc12)C(=O)N[C@@H](CC(N)=O)C(=O)N[C@@H](CC(=O)O)C(=O)N[C@@H]1C(=O)NCC(=O)N[C@@H](CCCN)C(=O)N[C@@H](CC(=O)O)C(=O)N[C@H](C)C(=O)N[C@@H](CC(=O)O)C(=O)NCC(=O)N[C@H](CO)C(=O)N[C@@H]([C@H](C)CC(=O)O)C(=O)N[C@@H](CC(=O)c2ccccc2N)C(=O)O[C@@H]1C [Compound 7] | 21 mm | 19 mm | 0.125 µg/mL (≈ 0.0752 µM) | 0.125 µg/mL (≈ 0.0752 µM) | 0.5 µg/mL (≈ 0.301 µM) | 0.5 µg/mL (≈ 0.301 µM) | 0.5 µg/mL (≈ 0.301 µM) | 0.25 µg/mL (≈ 0.15 µM) | 0.25 µg/mL (≈ 0.15 µM) | 0.03 µg/mL (≈ 0.018 µM) | 32 µg/mL (≈ 19.2 µM) | 0.54 mg/kg × 2 | 45 mg/kg × 2 | 0.046 mg/kg × 2 | 112 mg/kg | 29 mm | 17 mm
2 | CCCCCCCCCCCCCCC(=O)N[C@@H](Cc1c[nH]c2ccccc12)C(=O)N[C@@H](CC(N)=O)C(=O)N[C@@H](CC(=O)O)C(=O)N[C@@H]1C(=O)NCC(=O)N[C@@H](CCCN)C(=O)N[C@@H](CC(=O)O)C(=O)N[C@H](C)C(=O)N[C@@H](CC(=O)O)C(=O)NCC(=O)N[C@H](CO)C(=O)N[C@@H]([C@H](C)CC(=O)O)C(=O)N[C@@H](CC(=O)c2ccccc2N)C(=O)O[C@@H]1C [Compound 9] | 20 mm | 19 mm | 1 µg/mL (≈ 0.591 µM) | 1 µg/mL (≈ 0.591 µM) | 2 µg/mL (≈ 1.18 µM) | 2 µg/mL (≈ 1.18 µM) | 4 µg/mL (≈ 2.37 µM) | 1 µg/mL (≈ 0.591 µM) | 0.06 µg/mL (≈ 0.0355 µM) | 2 µg/mL (≈ 1.18 µM) | 0.25 µg/mL (≈ 0.148 µM) | 8.3 mg/kg × 2 | > 200 mg/kg × 2 |  | 56.2 mg/kg | 24 mm | 19 mm
3 | CCCCCCCCCCCCCCCC(=O)N[C@@H](Cc1c[nH]c2ccccc12)C(=O)N[C@@H](CC(N)=O)C(=O)N[C@@H](CC(=O)O)C(=O)N[C@@H]1C(=O)NCC(=O)N[C@@H](CCCN)C(=O)N[C@@H](CC(=O)O)C(=O)N[C@H](C)C(=O)N[C@@H](CC(=O)O)C(=O)NCC(=O)N[C@H](CO)C(=O)N[C@@H]([C@H](C)CC(=O)O)C(=O)N[C@@H](CC(=O)c2ccccc2N)C(=O)O[C@@H]1C [Compound 10] | 19 mm | 17 mm | 1 µg/mL (≈ 0.587 µM) | 1 µg/mL (≈ 0.587 µM) | 2 µg/mL (≈ 1.17 µM) | 2 µg/mL (≈ 1.17 µM) | 2 µg/mL (≈ 1.17 µM) | 1 µg/mL (≈ 0.587 µM) | 0.06 µg/mL (≈ 0.0352 µM) | 2 µg/mL (≈ 1.17 µM) | 0.25 µg/mL (≈ 0.147 µM) | > 1.1 mg/kg × 2 | > 200 mg/kg × 2 | 0.18 mg/kg × 2 | 50 mg/kg | 23 mm | 17 mm
4 | C=CCCCCCCCCC(=O)N[C@@H](Cc1c[nH]c2ccccc12)C(=O)N[C@@H](CC(N)=O)C(=O)N[C@@H](CC(=O)O)C(=O)N[C@@H]1C(=O)NCC(=O)N[C@@H](CCCN)C(=O)N[C@@H](CC(=O)O)C(=O)N[C@H](C)C(=O)N[C@@H](CC(=O)O)C(=O)NCC(=O)N[C@H](CO)C(=O)N[C@@H]([C@H](C)CC(=O)O)C(=O)N[C@@H](CC(=O)c2ccccc2N)C(=O)O[C@@H]1C [Compound 11] | 21 mm | 20 mm | 0.5 µg/mL (≈ 0.306 µM) | 0.5 µg/mL (≈ 0.306 µM) | 0.5 µg/mL (≈ 0.306 µM) | 1 µg/mL (≈ 0.612 µM) | 1 µg/mL (≈ 0.612 µM) | 0.5 µg/mL (≈ 0.306 µM) | 0.25 µg/mL (≈ 0.153 µM) | 1 µg/mL (≈ 0.612 µM) | 0.5 µg/mL (≈ 0.306 µM) | 0.93 mg/kg × 2 | 138 mg/kg × 2 | 0.068 mg/kg × 2 | ≥ 500 mg/kg | 25 mm | 17 mm
